# Laboratory results from PubChem BioAssay AID2060886 (Molecular Pharmacology Branch, DTP, NCI, 2025).
# Test system: 653999-131-R-J2-PDC complex spheroids, growth inhibition
# Assay: Anticancer human tumor 653999-131-R-J2-PDC patient-derived lung adenocarcinoma cell line growth inhibition [RAS]
# Conditions: for viability, T/C: stronger effect = lower value
# Description: RAS pathway inhibitors in Combinations in Complex Spheroids
# A high-throughput screen of multi-cell type tumor spheroids was designed to identify active combinations of RAS pathway inhibitors and targeted small molecules. Complex spheroids include a stromal component modeled by human endothelial cells (HUVEC) and fibroblasts modeled by human mesenchymal stem cells (MSCs). The concentration ranges selected for each drug and investigational agent were based upon clinically achievable concentrations if the clinical Cmax of the agent was known.
# Compounds. The drugs and investigational agents: abemaciclib (NSC768073), cobimetinib (NSC768068), divarasib (GDC6063, NSC841802), docetaxel (NSC628503), GDC-1971 (RLY-1971, NSC841576), gemcitabine (NSC613327), inavolisib (NSC800729), ipatasertib (NSC767898), KB-0742 (NSC834161), MRTX-1133 (NSC836407), osimertinib (NSC779217), RMC-4630 (NSC839698), RMC-6236 (NSC851965), RMC-6291 (NSC852671), Ro-3306 (NSC812927), sapanisertib (NSC764658), SN-38 (NSC673596), staurosporine (NSC755774), SY5609 (NSC837396), and tovorafenib (DAY101, NSC766906), were obtained from the National Cancer Institute (NCI) Developmental Therapeutics Program Chemical Repository. The FDA-approved anticancer drug set is available from the NCI Developmental Therapeutics Program. […] The stock solutions were prepared in dimethyl sulfoxide (DMSO, Sigma-Aldrich, St. Louis, MO, cat. D2650) at 800-fold the tested concentration and stored at -70 degrees C prior to their use. All drugs and investigational agents were tested over a range starting from a high concentration at or near the clinical Cmax and decreasing in half-log increments. If the clinical Cmax for an agent had not been determined, the highest concentration tested was 10 microM.
# Cell Culture. All cells were maintained in an incubator at 37 degrees C and 5% CO2 with 95% humidity. The PDC lines were cultured according to standard operating procedures established by the NCI PDMR. All PDCs were thawed and cultured in Matrigel-coated flasks prepared with a working solution of 1X Ham's F-12 nutrient mix, without supplementation (Invitrogen, Waltham, MA, cat. 11765054), 100 U/mL penicillin-streptomycin (Invitrogen, cat. 15140122), and 2.5% Matrigel (Corning Inc., Corning, NY, cat. 354248) for the first three passages. The 362531-283-R-J2-PDC and 782815-120-R-J1-PDC lines were cultured in 6C/Colon 1B media, which includes advanced DMEM/F-12 (Thermo Fisher Scientific, cat. 12634028), 10 mM HEPES (Thermo Fisher Scientific, cat. 15630080), 1X GlutaMAX supplement (Thermo Fisher Scientific, cat. 35050061), 0.1 mg/mL primocin (InvivoGen, San Diego, CA, cat. ant-pm-2), 10% defined fetal bovine serum, heat inactivated (HyClone Laboratories Inc., Logan, UT, cat. SH30070.03HI), 50% L-WRN conditioned media (ATCC, cat. CRL-3276), 1.25 mM N-Acetyl-L-cysteine (Sigma-Aldrich, cat. A9165), 10 mM nicotinamide (Sigma-Aldrich, cat. N0636), 1X B-27 supplement (Thermo Fisher Scientific, cat. 17504044), 1X N-2 supplement (Thermo Fisher Scientific, cat. 17502048), 50 ng/mL human EGF (Thermo Fisher Scientific, cat. PHG0311), and 10 microM Y-27632 dihydrochloride (Tocris Bioscience, cat. 1254). The K12877-001-R-J1-PDC line was cultured in 6I media, which includes all 6C/Colon 1B media plus 10 ng/mL human FGF-10 (PeproTech, cat. 100-26), 1 ng/mL human FGF-2 (PeproTech, cat. 100-18B), 1 µM prostaglandin E2 (Tocris Bioscience, cat. 2296), […] hydrocortisone (Sigma-Aldrich, cat. H4001), and […] bovine insulin (Sigma-Aldrich, cat. I6634). The K86415-001-R-J1-PDC line was cultured in 6D media, which includes all 6C/Colon 1B media components minus the L-WRN conditioned media. The 485176-168-R4-J1-PDC was cultured in PANC media, which includes all 6C/Colon 1B media plus 100 ng/mL human FGF-10 (PeproTech, cat. 100-26), 500 nM SB-431542 (Selleckchem, cat. S1067), and 10 nM gastrin (Tocris Bioscience, cat. 3006). […]
# [1] = curve of first compound, second compound 0.000949 µM
# [2] = curve of first compound, second compound 0.003 µM
# [3] = curve of first compound, second compound 0.00949 µM
# [4] = curve of first compound, second compound 0.03 µM
# [5] = curve of first compound, second compound 0.0949 µM
# [6] = curve of first compound, second compound 0.3 µM
# [7] = second compound 0.000949 µM, first compound 0.000949 µM
# [8] = second compound 0.000949 µM, first compound 0.003 µM
# [9] = second compound 0.000949 µM, first compound 0.00949 µM
# [10] = second compound 0.000949 µM, first compound 0.03 µM
# [11] = second compound 0.000949 µM, first compound 0.0949 µM
# [12] = second compound 0.000949 µM, first compound 0.3 µM
# [13] = second compound 0.003 µM, first compound 0.000949 µM
# [14] = second compound 0.003 µM, first compound 0.003 µM
# [15] = second compound 0.003 µM, first compound 0.00949 µM
# [16] = second compound 0.003 µM, first compound 0.03 µM
# [17] = second compound 0.003 µM, first compound 0.0949 µM
# [18] = second compound 0.003 µM, first compound 0.3 µM
# [19] = second compound 0.00949 µM, first compound 0.000949 µM
# [20] = second compound 0.00949 µM, first compound 0.003 µM
# [21] = second compound 0.00949 µM, first compound 0.00949 µM
# [22] = second compound 0.00949 µM, first compound 0.03 µM
# [23] = second compound 0.00949 µM, first compound 0.0949 µM
# [24] = second compound 0.00949 µM, first compound 0.3 µM
# [25] = second compound 0.03 µM, first compound 0.000949 µM
# [26] = second compound 0.03 µM, first compound 0.003 µM
# [27] = second compound 0.03 µM, first compound 0.00949 µM
# [28] = second compound 0.03 µM, first compound 0.03 µM
# [29] = second compound 0.03 µM, first compound 0.0949 µM
# [30] = second compound 0.03 µM, first compound 0.3 µM
# [31] = second compound 0.0949 µM, first compound 0.000949 µM
# [32] = second compound 0.0949 µM, first compound 0.003 µM
# [33] = second compound 0.0949 µM, first compound 0.00949 µM
# [34] = second compound 0.0949 µM, first compound 0.03 µM
# [35] = second compound 0.0949 µM, first compound 0.0949 µM
# [36] = second compound 0.0949 µM, first compound 0.3 µM
# [37] = second compound 0.3 µM, first compound 0.000949 µM
# [38] = second compound 0.3 µM, first compound 0.003 µM
# [39] = second compound 0.3 µM, first compound 0.00949 µM
# [40] = second compound 0.3 µM, first compound 0.03 µM
# [41] = second compound 0.3 µM, first compound 0.0949 µM
# [42] = second compound 0.3 µM, first compound 0.3 µM
# 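Note: spheroids exposed to the agents for seven days before the readout.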
compound,measurement,setting,value
CCc1c2c(nc3ccc(O)cc13)-c1cc3c(c(=O)n1C2)COC(=O)[C@]3(O)CC + CCn1c(-c2cccnc2C(C)OC)c2c3cc(ccc31)N1CCOC(CC(NC(=O)C(C(C)C)N(C)C(=O)C3(F)CCN(C(=O)C#CC(C)(C)N(C)C)CC3)C(=O)N3CCCC(N3)C(=O)OCC(C)(C)C2)C1,IC50,[1],13.3 nM
same,IC50,[2],12.6 nM
same,IC50,[3],14.8 nM
same,IC50,[4],10.6 nM
same,IC50,[5],7.78 nM
same,IC50,[6],5.63 nM
same,"viability, T/C",[7],92.6%
same,"viability, T/C",[8],84.4%
same,"viability, T/C",[9],52%
same,"viability, T/C",[10],35.9%
same,"viability, T/C",[11],30%
same,"viability, T/C",[12],16.7%
same,"viability, T/C",[13],86%
same,"viability, T/C",[14],77.3%
same,"viability, T/C",[15],52.8%
same,"viability, T/C",[16],35.9%
same,"viability, T/C",[17],28%
same,"viability, T/C",[18],20.4%
same,"viability, T/C",[19],104%
same,"viability, T/C",[20],84.1%
same,"viability, T/C",[21],55.2%
same,"viability, T/C",[22],37.8%
same,"viability, T/C",[23],28.7%
same,"viability, T/C",[24],17.3%
same,"viability, T/C",[25],91.8%
same,"viability, T/C",[26],75.7%
same,"viability, T/C",[27],51.9%
same,"viability, T/C",[28],31.4%
same,"viability, T/C",[29],22.3%
same,"viability, T/C",[30],16.3%
same,"viability, T/C",[31],90.6%
same,"viability, T/C",[32],66.4%
same,"viability, T/C",[33],47.5%
same,"viability, T/C",[34],29.9%
same,"viability, T/C",[35],19.3%
same,"viability, T/C",[36],12.4%
same,"viability, T/C",[37],81%
same,"viability, T/C",[38],57.8%
same,"viability, T/C",[39],44.9%
same,"viability, T/C",[40],26.3%
same,"viability, T/C",[41],17.6%
same,"viability, T/C",[42],11.5%
CCN1CCN(Cc2ccc(Nc3ncc(F)c(-c4cc(F)c5nc(C)n(C(C)C)c5c4)n3)nc2)CC1,"viability, T/C",compound 0.00316 µM,87.8% [middle of 4 runs]
same,"viability, T/C",compound 0.01 µM,96.6% [middle of 4 runs]
same,"viability, T/C",compound 0.0316 µM,73.8% [middle of 4 runs]
same,"viability, T/C",compound 0.316 µM,80.7% [middle of 4 runs]
same,"viability, T/C",compound 1 µM,83.8% [middle of 4 runs]
same,IC50,curve of compound,> 1000 nM
CCc1c2c(nc3ccc(O)cc13)-c1cc3c(c(=O)n1C2)COC(=O)[C@]3(O)CC + CCn1c(-c2cc(N3CCN(C)CC3)cnc2C(C)OC)c2c3cc(ccc31)-c1csc(n1)CC(NC(=O)C1CC1C)C(=O)N1CCCC(N1)C(=O)OCC(C)(C)C2,IC50,[1],3.61 nM
same,IC50,[2],1.3 nM
same,IC50,[3],< 0.949 nM
same,IC50,[4],< 0.949 nM
same,IC50,[5],< 0.949 nM
same,IC50,[6],< 0.949 nM
same,"viability, T/C",[7],70.2%
same,"viability, T/C",[8],48.4%
same,"viability, T/C",[9],42.2%
same,"viability, T/C",[10],25.1%
same,"viability, T/C",[11],17.2%
same,"viability, T/C",[12],11.2%
same,"viability, T/C",[13],56%
same,"viability, T/C",[14],34.1%
same,"viability, T/C",[15],30.6%
same,"viability, T/C",[16],17.5%
same,"viability, T/C",[17],14.7%
same,"viability, T/C",[18],10.1%
same,"viability, T/C",[19],39.1%
same,"viability, T/C",[20],27.3%
same,"viability, T/C",[21],18.9%
same,"viability, T/C",[22],14.1%
same,"viability, T/C",[23],9.53%
same,"viability, T/C",[24],6.56%
same,"viability, T/C",[25],29.8%
same,"viability, T/C",[26],18.2%
same,"viability, T/C",[27],17.8%
same,"viability, T/C",[28],9.32%
same,"viability, T/C",[29],6.76%
same,"viability, T/C",[30],6.96%
same,"viability, T/C",[31],23.9%
same,"viability, T/C",[32],15.4%
same,"viability, T/C",[33],11.4%
same,"viability, T/C",[34],9.9%
same,"viability, T/C",[35],7.72%
same,"viability, T/C",[36],5.39%
same,"viability, T/C",[37],21.1%
same,"viability, T/C",[38],14.4%
same,"viability, T/C",[39],11.6%
same,"viability, T/C",[40],9.69%
same,"viability, T/C",[41],6.54%
same,"viability, T/C",[42],4.62%
